Where a name gives a salt, the structure may show the parent alone.
Legend:
potentiation of 5-HTP = assay: 5-HTP potentiation (5-HTP syndrome); format: in vivo; conditions: Mus musculus, ip, 0.5 h; i.p., mice; 5-HTP 100 mg/kg i.v. 30 min after test substance; read-out: 5-HTP potentation,ED50
Protocol: The test substance is given i.p. or p.o. in the doses 10, 10, 2.5, 0.63 and 0 mg/kg. Three mice are used for each dose level. One of the groups on the highest dose is used as control of the compounds own effect. […] Thirty minutes after administration of test substance, 5-HTP, 100 mg/kg i.v. is given (injection time 5-10 sec.). After this 5-HTP dose the animals remain unaffected. If the animals have been pretreated with a substance, which inhibits the re-uptake of 5-HT, a 5-HTP syndrome will occur. This is characterized by the following symptoms: 1) excitation, 2) tremor, and 3) abduction of the hind limbs.
After the administration of 5-HTP the animals are observed for 15 minutes and each animal is given one point for each symptom present. Thus, the maximal score for a group consisting of 3 mice is 9.
The results are stated as fractions: 0/9, 1/9, 2/9 ..... 8/9, 9/9, where 0, 1, 2 ..... 8, 9 are the number of points per group after the dose in question.

[1] = test system: tetrabenazine induced ptosis; assay: Tetrabenazine ptosis antagonism; format: in vivo; conditions: Mus musculus, ip, 0.5 h; i.p., mice; tetrabenazine 40 mg/kg i.p. 30 min after test substance
Protocol: For insoluble substances the doses 0, 1/8, 1/32 and 1/128 of "i.^p. LD50" are used. 3 mice are used for each dose level. Thirty minutes after administration of test substance, tetrabenazine, 40 mg/kg, is injected i.p. Ptosis is evaluated 30 minutes after administration of tetrabenazine, the following rating scale being used: 0 = normal eyes, 1=1/4 closed eyes, 2 = 1/2 closed eyes, 3 = 3/4 closed eyes and 4 = completely closed eyes. Ptosis is evaluated 30 seconds after tilting the cage 3 times. The tilting is carried out in such a way that the animals slide along the floor of the cage.
The results are recorded as % inhibition of ptotic score calculated on the basis of the score of the control group. If ptotic score for the control group is < 10 the test is rejected and another is performed. The registration can also be done as an on line procedure.

Row | SMILES | ED50 (potentiation of 5-HTP) | ED50 [1]
1 | CN(C)[C@@H]1C[C@@H](c2ccc(F)cc2)c2ccc(F)cc21 (relative stereo) [Lu 13-114-c] | > 130 µmol/kg | 28 µmol/kg
2 | CN(C)[C@@H]1C[C@@H](c2ccc(F)cc2)c2ccc(C(F)(F)F)cc21 (relative stereo) [Lu 18-047-c] | – | 166 µmol/kg
3 | CN(C)[C@@H]1C[C@@H](c2ccc(Cl)c(Cl)c2)c2ccccc21 (relative stereo) [Lu 18-118] | 5 µmol/kg | 83 µmol/kg
4 | CN(C)[C@@H]1C[C@@H](c2ccc(Cl)cc2Cl)c2ccccc21 (relative stereo) [Lu 18-136-c] | 19 µmol/kg | 23 µmol/kg
5 | CCN(CC)[C@@H]1C[C@@H](c2ccc(Cl)c(Cl)c2)c2ccccc21 (relative stereo) [Lu 18-187-c] | 19 µmol/kg | 52 µmol/kg
6 | CN[C@@H]1C[C@@H](c2ccc(Cl)c(Cl)c2)c2ccccc21 (relative stereo) [Lu 19-005-c, trans-N-methyl-3-(3',4'-dichlorophenyl)-I-indanamine] | 6.7 µmol/kg | –
7 | CN[C@@H]1C[C@H](c2ccc(Cl)c(Cl)c2)c2ccccc21 (relative stereo) [Lu 19-006-c, cis-N-methyl-3-(3',4'-dichlorophenyl)-1-indanamine] | – | 5.8 µmol/kg
8 | CN(C)[C@@H]1C[C@@H](c2ccc(F)cc2)c2ccccc21 (relative stereo) [Lu 19-007-c] | 45 µmol/kg | 7.8 µmol/kg
9 | CN(C)[C@@H]1C[C@@H](c2ccccc2)c2ccccc21 (relative stereo) [Lu 19-026-c, reference compound] | > 35 µmol/kg | 17 µmol/kg
10 | CCN[C@@H]1C[C@@H](c2ccc(Cl)c(Cl)c2)c2ccccc21 (relative stereo) [Lu 19-040-c] | 26 µmol/kg | > 7 µmol/kg
11 | CCCN(CCC)[C@@H]1C[C@@H](c2ccc(Cl)c(Cl)c2)c2ccccc21 (relative stereo) [Lu 19-042-c] | > 100 µmol/kg | > 25 µmol/kg
12 | CCCN(CCC)[C@@H]1C[C@H](c2ccc(Cl)c(Cl)c2)c2ccccc21 (relative stereo) [Lu 19-043-c] | > 100 µmol/kg | > 100 µmol/kg
13 | CN(C)[C@@H]1C[C@@H](c2ccc(Br)cc2)c2ccccc21 (relative stereo) [Lu 19-056] | 8 µmol/kg | 10 µmol/kg
14 | CN(C)[C@@H]1C[C@H](c2ccc(Br)cc2)c2ccccc21 (relative stereo) [Lu 19-057] | 12 µmol/kg | 3.9 µmol/kg
15 | CN(C)[C@@H]1C[C@@H](c2ccc(C#N)cc2)c2ccc(F)cc21 (relative stereo) [Lu 19-070-c] | 25 µmol/kg | 45 µmol/kg
16 | Clc1ccc([C@@H]2C[C@@H](NCc3ccccc3)c3ccccc32)cc1Cl (relative stereo) [Lu 19-071-c] | > 25 µmol/kg | > 25 µmol/kg
17 | OCCN[C@@H]1C[C@@H](c2ccc(Cl)c(Cl)c2)c2ccccc21 (relative stereo) [Lu 19-074-c] | 270 µmol/kg | 75 µmol/kg
18 | Clc1ccc([C@@H]2C[C@@H](NCCc3ccccc3)c3ccccc32)cc1Cl (relative stereo) [Lu 19-078-c] | 142 µmol/kg | 33 µmol/kg
19 | OCCN(CCO)[C@@H]1C[C@@H](c2ccc(Cl)c(Cl)c2)c2ccccc21 (relative stereo) [Lu 19-082-c] | > 99 µmol/kg | 104 µmol/kg
20 | Clc1ccc([C@@H]2C[C@@H](NCC=Cc3ccccc3)c3ccccc32)cc1Cl (relative stereo) [Lu 19-083-o] | > 83 µmol/kg | > 83 µmol/kg
21 | CN[C@@H]1C[C@@H](c2ccc(F)c(Cl)c2)c2ccccc21 (relative stereo) [Lu 19-085-c, trans-N-methyl-3-(3'-chloro-4'-fluorophenyl)-I-indanamine hydrochloride] | 47 µmol/kg | 51 µmol/kg
22 | CN[C@@H]1C[C@@H](c2ccc(F)cc2)c2ccc(C)cc21 (relative stereo) [Lu 19-092-c] | 63 µmol/kg | 34 µmol/kg
23 | CN[C@@H]1C[C@H](c2ccccc2)c2ccccc21 (relative stereo) [Lu 19-094] | 211 µmol/kg | > 154 µmol/kg
24 | CN(C)[C@@H]1C[C@@H](c2ccc(F)c(F)c2)c2ccccc21 (relative stereo) [Lu 19-095-c] | 73 µmol/kg | 7.1 µmol/kg
25 | CN[C@@H]1C[C@@H](c2ccc(F)cc2)c2ccc(F)cc21 (relative stereo) [Lu 19-097-c] | 94 µmol/kg | –

Row | SMILES | ED50 (potentiation of 5-HTP) | ED50 [1]
26 | CN[C@@H]1C[C@@H](c2ccc(F)c(F)c2)c2ccccc21 (relative stereo) [Lu 19-098-c] | 22 µmol/kg | –
27 | CN[C@@H]1C[C@@H](c2ccc(Cl)cc2Cl)c2ccccc21 (relative stereo) [Lu 19-099-c] | 67 µmol/kg | 19 µmol/kg
28 | CN(C)[C@@H]1C[C@@H](c2ccc(F)c(Cl)c2)c2ccccc21 (relative stereo) [Lu 19-100-c, trans N,N-dimethyl-3-(3-chloro-4-fluorophenyi)-1-indanamine] | 37 µmol/kg | 4 µmol/kg
29 | CN(C)[C@@H]1C[C@H](c2ccc(F)c(Cl)c2)c2ccccc21 (relative stereo) [Lu 19-101-c, cis-N,N-dimethyl-3-(3-chloro-4-fluorophenyl)-1-indanamine, hydrochloride] | 51 µmol/kg | 24 µmol/kg
30 | CN[C@@H]1C[C@@H](c2ccc(Br)cc2)c2ccccc21 (relative stereo) [Lu 19-102-c] | 8.8 µmol/kg | 4 µmol/kg
31 | CN[C@@H]1C[C@H](c2ccc(Br)cc2)c2ccccc21 (relative stereo) [Lu 19-103-c] | 6.6 µmol/kg | 29 µmol/kg
32 | CN[C@@H]1C[C@H](c2ccc(F)c(F)c2)c2ccccc21 (relative stereo) [Lu 19-104-c, cis-N-methyl-3-(3,4-difluorophenyl)-1-indanamine] | 63 µmol/kg | 23 µmol/kg
33 | CCN(C)[C@@H]1C[C@@H](c2ccc(F)c(Cl)c2)c2ccccc21 (relative stereo) [Lu 19-105-o, trans N-ethyl-N-methyl-N-3-(3'-chloro-4'-fluorophenyl)-indanamine] | 95 µmol/kg | 12 µmol/kg
34 | CN[C@@H]1C[C@H](c2ccc(F)cc2)c2ccccc21 (relative stereo) [Lu 19-108-c, cis N-methyl-3-(4'-fluorophenyl)-1-indanamine, hydrochloride] | 72 µmol/kg | 79 µmol/kg
35 | CN[C@@H]1C[C@@H](c2ccc(F)cc2)c2ccccc21 (relative stereo) [Lu 19-109-c] | > 36 µmol/kg | 6.3 µmol/kg
36 | CN[C@@H]1C[C@H](c2cccc(Cl)c2)c2ccccc21 (relative stereo) [Lu 19-110-c] | 124 µmol/kg | 142 µmol/kg
37 | CN[C@@H]1C[C@@H](c2cccc(Cl)c2)c2ccccc21 (relative stereo) [Lu 19-111-c] | 92 µmol/kg | 45 µmol/kg
38 | CN[C@@H]1C[C@H](c2ccc(Cl)cc2Cl)c2ccccc21 (relative stereo) [Lu 19-113-c] | 71 µmol/kg | 98 µmol/kg
39 | CN(C)[C@@H]1C[C@@H](c2cccc(Cl)c2)c2ccccc21 (relative stereo) [Lu 19-115-c] | 43 µmol/kg | 10 µmol/kg
40 | CN(C)[C@@H]1C[C@H](c2cccc(Cl)c2)c2ccccc21 (relative stereo) [Lu 19-116-c] | 78 µmol/kg | 85 µmol/kg
41 | CN[C@@H]1C[C@@H](c2ccc(Cl)cc2)c2ccccc21 (relative stereo) [Lu 19-119] | 34 µmol/kg | > 155 µmol/kg
42 | CN[C@@H]1C[C@H](c2ccc(Cl)cc2)c2ccccc21 (relative stereo) [Lu 19-120-c] | 23 µmol/kg | > 34 µmol/kg
43 | CN(C)[C@@H]1C[C@@H](c2ccc(Cl)cc2)c2ccccc21 (relative stereo) [Lu 19-121] | 18 µmol/kg | 66 µmol/kg
44 | CN(C)[C@@H]1C[C@H](c2ccc(Cl)cc2)c2ccccc21 (relative stereo) [Lu 19-124] | 109 µmol/kg | 43 µmol/kg
45 | CN[C@@H]1C[C@@H](c2ccc(Cl)c(Cl)c2)c2ccc(F)cc21 (relative stereo) [Lu 19-136-c] | 27 µmol/kg | 33 µmol/kg
46 | CN[C@@H]1C[C@H](c2ccc(Cl)c(Cl)c2)c2ccc(F)cc21 (relative stereo) [Lu 19-137-c] | 34 µmol/kg | 15 µmol/kg
47 | CN(C)[C@@H]1C[C@@H](c2ccc(Cl)c(Cl)c2)c2ccc(F)cc21 (relative stereo) [Lu 19-143-c] | 14 µmol/kg | > 111 µmol/kg
48 | CN[C@@H]1C[C@@H](c2ccc(Cl)c(Cl)c2)c2ccccc21 (single isomer, unassigned) [Lu 20-042-c, (+) trans N-methyl-3-(3,4-dichlorophenyl)-1-indanamine, hydrochloride] | – | 7.6 µmol/kg
49 | CNC1CC(c2ccc(Cl)c(Cl)c2)c2ccccc21 (single isomer, unassigned; (-)) [Lu 20-043-c, (-) trans N-methyl-3-(3,4-dichlorophenyl)-1-indanamine, hydrochloride] | 16 µmol/kg | –

Reference: patent publication EP0076669A1, “Novel 3-phenyl-1-indanamines, pharmaceutical compositions and methods of preparation” (KEFALAS A/S, priority 1981, dated 1983)
